This is an account of results in US20150233926A1, “METHOD FOR SPECIFICALLY DETECTING A MATRIX METALLOPROTEINASE (MMP) WHICH IS ONLY OF INTEREST IN THE ACTIVE FORM THEREOF, IN A SAMPLE” (priority 2012, published 2015).

One may read the Ki as a measure of affinity in units of concentration, obtained from inhibition or displacement.

For one assay, the target named is T1, human MMP 2 (Homo sapiens, UniProt P08253).
T1 sequence (P08253 110-660): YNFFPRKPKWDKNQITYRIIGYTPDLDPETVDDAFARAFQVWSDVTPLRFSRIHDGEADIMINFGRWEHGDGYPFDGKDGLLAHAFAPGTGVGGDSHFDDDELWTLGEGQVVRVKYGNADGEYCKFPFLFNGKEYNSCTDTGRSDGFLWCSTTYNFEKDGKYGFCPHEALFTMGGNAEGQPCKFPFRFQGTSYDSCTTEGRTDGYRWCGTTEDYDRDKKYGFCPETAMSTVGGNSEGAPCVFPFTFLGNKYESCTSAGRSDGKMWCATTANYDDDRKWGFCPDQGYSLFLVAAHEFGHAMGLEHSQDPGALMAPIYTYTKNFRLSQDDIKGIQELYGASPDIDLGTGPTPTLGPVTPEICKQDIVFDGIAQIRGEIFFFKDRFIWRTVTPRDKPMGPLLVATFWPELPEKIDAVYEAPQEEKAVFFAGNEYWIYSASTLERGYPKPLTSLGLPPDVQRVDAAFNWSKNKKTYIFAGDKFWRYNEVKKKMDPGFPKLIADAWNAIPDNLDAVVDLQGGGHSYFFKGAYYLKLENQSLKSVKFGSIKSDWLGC
Nature of the assay: Ki determination with fluorogenic substrate MCA-Mat, human MMP2. In kind it is biochemical. The following applies: recombinant MMP 2 h at 0.05 nM, 100 μL, MCA-Mat 15 μM. On the procedure:
(§1) The inhibition constants Ki of compounds P1, P2, and P3 were determined in comparison to human MMPs 2, 3, 8, 9, 12, 13, 14 and to murine MMP12. Recombinant proteases were used in volumes of 100 μL at concentrations of 0.05, 0.3, 0.03, 0.05, 0.03, 0.015, and 0.5 nM respectively for human MMPs 2, 3, 8, 9, 12, 13, 14, and at a concentration of 0.1 nM for murine MMP12. […] Recall that the lower the Ki of a compound, the greater its potential for inhibiting the chosen target.

The target in another assay is murine MMP12 (Mus musculus, UniProt P34960). Description: Ki determination with fluorogenic substrate MCA-Mat, murine MMP12. In kind it is biochemical. The following applies: recombinant MMP 12 m at 0.1 nM, 100 μL, MCA-Mat 15 μM. On the procedure:
as §1

The next assay addresses human MMP 3 (Homo sapiens, UniProt P08254). Description: Ki determination with fluorogenic substrate MCA-Mat, human MMP3. Type of assay: biochemical. The following applies: recombinant MMP 3 h at 0.3 nM, 100 μL, MCA-Mat 15 μM. On the procedure:
as §1

Another assay deals with human MMP 9 (Homo sapiens, UniProt P14780). Nature of the assay: Ki determination with fluorogenic substrate MCA-Mat, human MMP9. In kind it is biochemical. As to conditions: recombinant MMP 9 h at 0.05 nM, 100 μL, MCA-Mat 15 μM. On the procedure:
as §1

A further assay has as its target human MMP 12 (Homo sapiens, UniProt P39900). Nature of the assay: Ki determination with fluorogenic substrate MCA-Mat, human MMP12. In kind it is biochemical. The following applies: recombinant MMP 12 h at 0.03 nM, 100 μL, MCA-Mat 15 μM. On the procedure:
as §1

The next assay addresses human MMP 8 (Homo sapiens, UniProt P22894). Nature of the assay: Ki determination with fluorogenic substrate MCA-Mat, human MMP8. Type of assay: biochemical. As to conditions: recombinant MMP 8 h at 0.03 nM, 100 μL, MCA-Mat 15 μM. On the procedure: as §1
A further assay has as its target human MMP 14 (Homo sapiens, UniProt P50281). Nature of the assay: Ki determination with fluorogenic substrate MCA-Mat, human MMP14. Type of assay: biochemical. As to conditions: recombinant MMP 14 h at 0.5 nM, 100 μL, MCA-Mat 15 μM. On the procedure: as §1
A further assay addresses human MMP 13 (Homo sapiens, UniProt P45452). Nature of the assay: Ki determination with fluorogenic substrate MCA-Mat, human MMP13. As to conditions: recombinant MMP 13 h at 0.015 nM, 100 μL, MCA-Mat 15 μM. Type of assay: biochemical. On the procedure:
as §1

A further assay has as its target MMP12h (Homo sapiens, UniProt P39900). The following applies: read-out: Ki with respect to MMP12h; competitor used in strip and EIA tests; described in Devel et al, 2006; cited from earlier work.

Chain of murine MMP12 (P34960 110-473): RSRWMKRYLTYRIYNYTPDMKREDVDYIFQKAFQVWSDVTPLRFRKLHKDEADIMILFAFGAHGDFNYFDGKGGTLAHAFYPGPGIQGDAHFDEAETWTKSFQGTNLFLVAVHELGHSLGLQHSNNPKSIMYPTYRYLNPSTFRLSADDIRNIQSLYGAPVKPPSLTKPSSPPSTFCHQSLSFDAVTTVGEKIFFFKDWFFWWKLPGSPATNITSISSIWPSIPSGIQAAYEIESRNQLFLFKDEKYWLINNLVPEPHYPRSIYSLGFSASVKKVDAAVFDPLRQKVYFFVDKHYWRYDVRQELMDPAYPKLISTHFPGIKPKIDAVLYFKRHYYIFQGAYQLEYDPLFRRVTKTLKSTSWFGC
Chain of human MMP 8 (P22894 101-467): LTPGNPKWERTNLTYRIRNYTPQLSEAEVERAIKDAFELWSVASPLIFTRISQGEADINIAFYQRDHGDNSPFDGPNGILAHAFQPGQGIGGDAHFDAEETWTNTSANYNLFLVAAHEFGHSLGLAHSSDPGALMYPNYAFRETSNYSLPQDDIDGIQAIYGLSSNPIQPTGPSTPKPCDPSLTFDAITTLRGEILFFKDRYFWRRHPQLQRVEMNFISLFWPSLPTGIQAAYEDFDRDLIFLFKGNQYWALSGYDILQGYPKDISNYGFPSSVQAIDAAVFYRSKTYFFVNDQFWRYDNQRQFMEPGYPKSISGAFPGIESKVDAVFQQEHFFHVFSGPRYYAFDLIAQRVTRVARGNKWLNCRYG
Chain of human MMP 3 (P08254 100-477): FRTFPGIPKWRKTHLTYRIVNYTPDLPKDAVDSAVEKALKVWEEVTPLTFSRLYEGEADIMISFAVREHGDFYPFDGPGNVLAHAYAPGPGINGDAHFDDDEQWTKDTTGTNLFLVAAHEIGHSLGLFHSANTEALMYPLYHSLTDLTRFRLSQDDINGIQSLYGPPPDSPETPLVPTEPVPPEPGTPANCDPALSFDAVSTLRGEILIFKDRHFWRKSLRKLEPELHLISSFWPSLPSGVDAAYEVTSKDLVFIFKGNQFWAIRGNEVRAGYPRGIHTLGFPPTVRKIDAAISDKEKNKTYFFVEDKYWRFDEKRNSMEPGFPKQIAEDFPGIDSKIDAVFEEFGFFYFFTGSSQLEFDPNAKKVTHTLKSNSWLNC
Chain of human MMP 9 (P14780 94-707): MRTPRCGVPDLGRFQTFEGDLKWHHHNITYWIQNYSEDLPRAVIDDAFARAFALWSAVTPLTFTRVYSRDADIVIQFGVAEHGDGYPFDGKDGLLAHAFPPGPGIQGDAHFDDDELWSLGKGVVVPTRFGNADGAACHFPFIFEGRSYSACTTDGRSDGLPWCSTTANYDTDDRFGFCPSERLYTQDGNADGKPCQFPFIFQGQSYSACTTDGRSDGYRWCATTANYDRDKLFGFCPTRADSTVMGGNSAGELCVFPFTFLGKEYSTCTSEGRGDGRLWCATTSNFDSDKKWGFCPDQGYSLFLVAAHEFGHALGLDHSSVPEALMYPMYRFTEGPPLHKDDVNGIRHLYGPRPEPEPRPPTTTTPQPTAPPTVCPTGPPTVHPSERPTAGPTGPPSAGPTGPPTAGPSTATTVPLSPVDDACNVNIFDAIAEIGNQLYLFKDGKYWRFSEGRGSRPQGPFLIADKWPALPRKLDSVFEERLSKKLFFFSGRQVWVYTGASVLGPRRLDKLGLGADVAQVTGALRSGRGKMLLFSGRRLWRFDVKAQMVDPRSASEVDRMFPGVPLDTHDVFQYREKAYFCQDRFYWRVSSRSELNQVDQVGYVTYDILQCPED
Chain of human MMP 12 (P39900 106-470): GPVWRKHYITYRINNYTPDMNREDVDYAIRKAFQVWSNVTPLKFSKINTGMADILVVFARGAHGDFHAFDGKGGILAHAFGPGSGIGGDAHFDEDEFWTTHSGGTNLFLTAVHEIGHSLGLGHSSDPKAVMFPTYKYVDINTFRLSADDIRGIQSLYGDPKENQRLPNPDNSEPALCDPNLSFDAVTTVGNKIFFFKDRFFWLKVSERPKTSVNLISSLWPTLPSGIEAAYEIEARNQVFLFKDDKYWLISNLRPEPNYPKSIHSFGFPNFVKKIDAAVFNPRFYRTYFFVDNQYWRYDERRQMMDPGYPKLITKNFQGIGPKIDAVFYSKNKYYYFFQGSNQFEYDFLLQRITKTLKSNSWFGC
Chain of MMP12h (P39900 106-470): as above

As to `CCC(=O)NOCCOCCOCCOCCOCCOCCOCCOCCOCCOCCOCCOCCOCOCCOCCOCCOCCOCCOCCOCCOCCOCCOCCOCCOCCOCCOCCOCCC(=O)N1CCC[C@H]1C(=O)N[C@@H](C)C(=O)N[C@@H](Cc1ccccc1)P(=O)(O)CC(Cc1cc(-c2ccc(-c3cccc(Cl)c3)cc2)no1)C(=O)N[C@@H](Cc1ccc(O)cc1)C(=O)N[C@@H](C)C(=O)NCC(=O)NCCCOCCOCCOCCCNC(=O)CCCCC1SCC2NC(=O)NC21` (stereo partly shown) [Ligand P3], the inhibitory constant (Ki) on human MMP 2 was found to be 0.3 nM; at murine MMP12, 0.66 nM; at human MMP 3, 1.55 nM; on human MMP 9 it was 0.73 nM; at human MMP 12, 0.26 nM; on human MMP 8 it was 0.47 nM. For the same compound, the Ki worked out at 1.82 nM at human MMP 14 and 0.07 nM at human MMP 13.
Consider `NC(=O)C(CCC(=O)O)NC(=O)C(CCC(=O)O)NC(=O)C(Cc1cc(-c2ccc(-c3cccc(Cl)c3)cc2)no1)CP(=O)(O)c1ccc(Br)cc1` (stereo not shown) [RXP470.1], for which, at MMP12h, the Ki is 0.2 nM.
For `CC(=O)N1CCC[C@H]1C(=O)N[C@@H](C)C(=O)N[C@@H](Cc1ccccc1)P(=O)(O)CC(Cc1cc(-c2ccc(-c3cccc(Cl)c3)cc2)no1)C(=O)N[C@@H](Cc1ccc(O)cc1)C(=O)N[C@@H](C)C(=O)NCC(=O)NCCCOCCOCCOCCCNC(=O)CCOCCOCCOCCOCCOCCOCCOCCOCCOCOCCOCCOCCOCCOCCOCCOCCOCCOCCOCCOCCOCCOCCOCCOCCNC(=O)CCCN1C(=O)C=CC1=O` (stereo partly shown) [Ligand P2], the inhibition constant (Ki) on human MMP 2 stood at 0.15 nM; at murine MMP12, 0.09 nM; at human MMP 3, 1 nM; at human MMP 9, 0.48 nM; at human MMP 12, 0.05 nM; at human MMP 8 it was 0.12 nM. For the same compound, the Ki came to 0.7 nM at human MMP 14 and 0.03 nM on human MMP 13.
Turning to `CC(=O)SCC(=O)NCCOCCOCCOCCOCCOCCOCCOCCOCCOCCOCCOCCOCCOCCOCCOCCOCCOCCOCCOCOCCOCCOCCOCCOCCOCCOCCOCCOCCC(=O)NCCCOCCOCCOCCCNC(=O)CNC(=O)[C@H](C)NC(=O)[C@H](Cc1ccc(O)cc1)NC(=O)C(Cc1cc(-c2ccc(-c3cccc(Cl)c3)cc2)no1)CP(=O)(O)[C@H](Cc1ccccc1)NC(=O)[C@H](C)NC(=O)[C@@H]1CCCN1C(C)=O` (stereo partly shown) [Ligand P1], the inhibition constant (Ki) on human MMP 2 stood at 0.12 nM; on murine MMP12, 0.08 nM; on human MMP 3, 0.75 nM; at human MMP 9, 0.28 nM; on human MMP 12, 0.03 nM; at human MMP 8 it was 0.09 nM. Further, the Ki is 0.53 nM at human MMP 14 and 0.017 nM at human MMP 13.
